Results from the NIST ThermoML archive (doi:10.1016/j.tca.2019.05.008).

Legend:
[1] = Fast Scanning Calorimeter Method
[2] = molar heat capacity at constant pressure; conditions: 101.33 kPa, Crystal, DSC

Cn1c(=O)c2[nH]cnc2n(C)c1=O [3,7-dihydro-1,3-dimethyl-1H-purine-2,6-dione]
[1], Crystal
Conditions | vapor or sublimation pressure [kPa]
441.6 K | 0.0028
447.2 K | 0.0033
449.1 K | 0.0047
451 K | 0.0061
457 K | 0.0072
459 K | 0.0108
460.4 K | 0.0109
466.7 K | 0.0133
468.9 K | 0.0192
469.8 K | 0.021
476.5 K | 0.0261
478.7 K | 0.0365
479.2 K | 0.0409
486.2 K | 0.0532
496 K | 0.1094
498 K | 0.1408
498.5 K | 0.1485
505.7 K | 0.1888
507.4 K | 0.2298
508.3 K | 0.2823
515.5 K | 0.3649
516.8 K | 0.3867
518.2 K | 0.4909
525.2 K | 0.563
526.2 K | 0.8232
528.1 K | 0.8994
535 K | 1.001
537.9 K | 1.619

[2]
Conditions | molar heat capacity at constant pressure [J/K/mol]
230 K | 159.6
240 K | 164.8
250 K | 170
260 K | 175.1
270 K | 180.2
280 K | 185.3
290 K | 190.3
300 K | 195.4
310 K | 200.4
320 K | 205.3
330 K | 210.3
340 K | 215.2
350 K | 220.1
360 K | 224.9
370 K | 229.7
380 K | 234.5
390 K | 239.3
400 K | 244
410 K | 248.7
420 K | 253.4

O=C1c2ccccc2C(=O)c2ccccc21 [9,10(9H,10H)-anthracenedione]
[1], Crystal
Conditions | vapor or sublimation pressure [kPa]
422.8 K | 0.0135
427.7 K | 0.0152
429.2 K | 0.0165
432.2 K | 0.0209
437.4 K | 0.0345
439.1 K | 0.0354
441.6 K | 0.0381
447.2 K | 0.0511
448.9 K | 0.0693
451 K | 0.0839
457 K | 0.1042
458.8 K | 0.148
460.4 K | 0.1696
466.7 K | 0.1977
468.7 K | 0.2749
469.8 K | 0.2497
476.5 K | 0.3235
478.5 K | 0.487

[2]
Conditions | molar heat capacity at constant pressure [J/K/mol]
230 K | 182.5
240 K | 188.9
250 K | 195.4
260 K | 201.9
270 K | 208.3
280 K | 214.8
290 K | 221.3
300 K | 227.8
310 K | 234.3
320 K | 240.8
330 K | 247.3
340 K | 253.8
350 K | 260.4
360 K | 266.9
370 K | 273.5
380 K | 280
390 K | 286.6
400 K | 293.2
410 K | 299.8
420 K | 306.4

Cn1c(=O)c2c(ncn2C)n(C)c1=O [caffeine]
[1], Crystal 1
Conditions | vapor or sublimation pressure [kPa]
394.7 K | 0.0031
398.4 K | 0.0035
399.8 K | 0.0039
404.1 K | 0.0067
408.2 K | 0.0092
409.7 K | 0.0099
413.5 K | 0.0116
417.9 K | 0.0158
419.5 K | 0.019
422.8 K | 0.023
427.7 K | 0.0336
429.4 K | 0.0376
432.2 K | 0.0467
437.4 K | 0.0651
439.3 K | 0.0736
441.6 K | 0.0874
447.2 K | 0.1252
449.1 K | 0.1611
451 K | 0.1622
457 K | 0.2346
459 K | 0.2609
460.4 K | 0.2914
466.7 K | 0.4121
468.9 K | 0.4821
469.8 K | 0.4864
476.5 K | 0.7169
478.7 K | 0.8343
479.2 K | 0.9112
486.2 K | 1.078
488.6 K | 1.415
